{"source": "patent US11007250B2", "about": "“Methods and kits for treating pain” (Duke University, priority 2017, dated 2021)", "tested_on": "afferent fibers in sciatic nerve of melanoma-bearing mice", "assay": "Spontaneous discharge recordings in mouse sciatic nerve in vivo", "settings": "i.v. Nivolumab 10 mg/kg, MCI-4w, 3 h after injection", "excerpt": "Spontaneous discharge recordings in mouse sciatic nerve in vivo. Adult male mice (25-32 g) were anaesthetized with urethane (1.5 g/kg, i.p.) and monitored for loss of hind paw pinch reflex with additional injections of urethane (0.2 g/kg). The animals were artificially ventilated with oxygen on a respirator. The left thigh was shaved and an incision made parallel to the femur. The muscle was parted by blunt forceps dissection to expose the sciatic nerve proximal to the trifurcation. A cuff electrode (Microprobes) was placed loosely around the full circumference of the sciatic nerve. Skin flaps were raised to enclose a pool of mineral oil that covered the exposed regions of nerve. The spontaneous discharges in the sciatic nerve were recorded with a microelectrode AC amplifier (1800, A-M systems), filtered (low cut-off 100 Hz and hi cut-off 20 kHz) and digitized at 20 kHz (Digidata 1440A, Molecular Devices). Data were stored with a personal computer using pCLAMP 10 software and analyzed with Offline Sorter software (Plexon, Dallas, Tex.) and Origin pro 8.0 (Origin Lab). The spikes of sciatic nerve were characterized as previously reported (Xu, Z Z, et al. 2015)."}
{"substance": "Nivolumab: FDA-approved fully humanized IgG4 monoclonal anti-PD-1 antibody, Bristol-Myers Squibb", "values": [{"measurement": "spontaneous discharges in nerve fibers", "result": "significantly increased spontaneous discharges"}]}
